The source of these data is patent publication US9844572B2, “Promotion of neuronal integration in neural stem cell grafts” (Life & Brain GmbH, priority 2009, dated 2017).

The test system of data set [1] is human Neurons. Put plainly: Transwell (Boyden chamber) migration assay of human neurons towards chemoattractant-soaked agarose beads. The note with it: agarose beads soaked with 30 ng/ml factor in lower well; 20 hours. It is filed as cell-based. As for the experimental part: FIG. 1B Migration of human Neurons monitored after 20 hours in culture towards either medium or plated neural stem cells derived from human embryonic stem cells (lt-hESNSC) or agarose beads pre-soaked with BDNF, EGF, SDF1, SCF, PDGF, FGF2 or VEGF. Bars represent percentage of migrated neurons (*P<0.03; Statistical significance was determined in relation to medium control).
(§1) One way to study migration at the cellular level is to use microchemotaxis chambers (Boyden chambers; see FIG. 1A) (Richards & McCullough, 1984). A membrane separates the upper and the lower part of the chamber. Cells are plated on the PO/LN coated membrane that separates the upper and the lower well. Chemoattractants are introduced in the well of the lower compartment e.g., by soaking agarose beads (affi-gel blue gel) with the corresponding chemoattractants. 100 μl of the pre-soaked beads are introduced in the lower well and covered with medium before placing the upper well on top. The chemoattractant will be released over time, thus creating a chemoattractive gradient. If the agent acts as a chemoattractant, the attached cells will migrate through the filter towards the gradient of the attracting factor. Small pore sizes (8 μm) require active migration rather than passive falling of the cells through the filter.
In this study agarose beads were soaked with either 30 ng/ml EGF, BDNF, SDF1, SCF, PDFG-AA, FGF2 or VEGF (FIG. 1B). The chemoattractive effect of NSCs on neurons was studied by plating lt-hESNSC directly in the PO/LN coated lower well before placing the upper well with the attached neurons on top. After a culture period of 20 hours, chambers were fixed with 4% PFA for 10 min. Cells that had not migrated and were still on the upper side of the membrane were scraped off, while the migrated cells on the lower side were DAPI stained and counted.

Data set [2] deals with human Neurons. Put plainly: Dunn chamber migration assay (chemotaxis of immature neurons). The class given is cell-based. Particulars: factor 200 ng/ml in outer well only; 6 h recording. On the procedure:
FIG. 7A Dunn chamber migration assay. Schematic representation of a direct-viewing Dunn chemotaxis chamber showing the position of the inner well, the bridge, the outer well and the overlying coverslip (a) (Zicha et al., 1991 1998, Zhang et al., 2003). Adopted from Hawksley. Calculation of the forward migration index (FMI) during a 6 h recording period. FMI values can be either positive or negative, depending on the direction in which the cell is migrating (b).
FIG. 7B Directionality analysis of cell movement using scatter plots of cell displacement (c-i). The diagrams orientate such that the position of the outer well of the chamber are vertical (y direction). Each point represents the final position of a cell at the end of the recording period of 6-h; the starting point of migration is fixed at the intersection of the two axes. As control migration of human neurons was monitored in medium only (c). For assessing chemokinesis, equal amounts of FGF2 (d) or VEGF (e) were added to both the outer and the inner wells of the chamber. Chemotaxis was tested by placing FGF2 (f) or VEGF (g) in the outer well only. Migration of human neurons treated with BFBF1120 was monitored towards a FGF2 (h) and VEGF (i) gradient.
Chemotaxis of immature neurons was directly viewed and recorded in stable concentration gradients of FGF2 (200 ng/ml) or VEGF (200 ng/ml), respectively, with or without the addition of BIBF1120 ([…]) using a Dunn chemotaxis chamber (Allen et al., 1998 1998, Zhang et al., 2003). This device is made from a Helber bacteria counting chamber by grinding a circular well in the central platform to leave a 1 mm-wide annular bridge between the inner and the outer well. Chemoattractants added to the outer well of the chamber will diffuse across the bridge to the inner well and form a linear steady gradient within ˜30 min after loading the chamber (Zicha et al., 1991; Webb et al., 1996). To study chemotaxis, the outer well of the Dunn chamber can be filled with medium containing a chemoattractant, whereas the concentric inner well is filled with medium only. Coverslips carrying the cultured cells are inverted and placed onto the chamber. Cell locomotion is recorded through the annular bridge between the concentric inner and outer well. For assessing chemokinesis, the outer and inner wells are filled with equal concentrations of the chemoattractant. A period of 6 h was chosen to assess cell migration.
To determine the efficiency of forward migration during the 6 h recording period, the FMI was calculated as the ratio of forward progress to the total path length (Foxman et al., 1999; Zhang et al.).

The test system of data set [3] is lt-hESNSC mixed with immature neurons on hippocampal rat slice cultures. In words: Transplantation onto rat hippocampal slice cultures (migration of human neurons from mixed grafts). The class given is cell-based. As for the experimental part: Using a vibroslicer, 400 μm horizontal sections were generated from the hippocampus of 9-10 day-old Wistar rats. The slices included the dentate gyrus and the entorhinal and temporal cortex (Scheffler et al., 2003; Opitz et al., 2007). They were transferred onto a polyester membrane and cultivated at 35° C., 5% CO2 and saturated air humidity in an initial culture medium containing 25% normal horse serum, which was gradually replaced after 3-5 days by chemically defined, serum-free culture medium based on DMEM/F12, N2 supplement and B27 supplement. Medium was changed every other day and 5-7 days after explantation a cell suspension of 50 000 cells in a 1 μl volume was spotted onto the entorhinal cortex of the slice using an injection device.
For immunohistochemical analysis of slice cultures (FIG. 4), cultures were fixed in 4% paraformaldehyde for 4 hours and subsequently washed several times with PBS. Slices were permeabilized/blocked with 0.1% Triton X-100+10% FCS for 6 hours at 25° C. Incubation with primary antibody was for 16 hours at room temperature, followed by washing steps with PBS for 5 hours. Incubation with the secondary antibodies was for 2 hours at room temperature.
To further investigate whether endostatin can also interfere with the chemoattractive effect of neural stem/progenitor cells on immature neurons in a context closer to an in vivo situation, hippocampal rat slice culture experiments were performed. HES-NSC70+N30 were pre-incubated for 30 minutes in 30 μl Cytocon™-Buffer II with either 2 μl stock solution endostatin (n=9) or with 2 μl of the solvent of endostatin (citric-phosphate buffer) as control (n=9), and then deposited on the entorhinal cortex of hippocampal slice cultures. Cultures of pure human neurons were transplanted as positive control (n=9). The slices were further cultured for 18 days after deposition of the cells. 1 μl/ml endostatin stock solution was continuously applied every day to the slice media.
To further investigate whether BIBF1120 can also interfere with the chemoattractive effect of neural stem/progenitor cells on immature neurons, hippocampal rat slice culture experiments were performed. Lt-hESNSC mixed with purified DCX-EGFP positive neurons (30.0000 lt-hESNSC mixed with 100.000 purified neurons per μl) were pre-incubated for 30 min. in Cytocon™-Buffer II with or without 2 μg/ml BIBF1120, respectively, and then deposited on the entorhinal cortex (EC) of hippocampal slice cultures. The slices were further cultured for 7 days after deposition of the cells. 2 μg/ml BIBF1120 was continuously applied every day to the slice media.

In data set [4] the test system is immature neurons in the presence of neural stem/progenitor cells (hES-NSC70+N30). In words: Boyden chamber assay of neural stem/progenitor cells mixed with immature neurons (hES-NSC70+N30) pre-incubated with inhibitor. The class given is cell-based, human. The note with it: hES-NSC70+N30 pre-incubated for 30 minutes with agent. As for the experimental part: Bars represent the percentage of migrated neurons after 20 hours in culture towards medium or a chemoattractant either with or without VEGF R2-AB or endostatin treatment. Cell numbers were normalised to the number of plated neurons (*P≦0.02; statistical significance was determined in relation to the control).
as §1, with “If the agent acts as a chemoattractant, the attached cells will migrate through the filter towards the gradient of the attracting factor. Small pore sizes (8 μm) require active migration rather than passive falling of the cells through the filter.” left out
In this study agarose beads were soaked with either 30 ng/ml EGF, BDNF, SDF1, SCF, PDFG-AA, FGF2 or VEGF (FIG. 1B). […] Cells that had not migrated and were still on the upper side of the membrane were scraped off, while the migrated cells on the lower side were DAPI stained and counted. […]

In a further data set the test system is primary tumor. The note with it: cited from earlier work.
For another data set, the target named is KDR (Homo sapiens, UniProt P35968). The note with it: cited from earlier work.
KDR, sequence (P35968 20-1356): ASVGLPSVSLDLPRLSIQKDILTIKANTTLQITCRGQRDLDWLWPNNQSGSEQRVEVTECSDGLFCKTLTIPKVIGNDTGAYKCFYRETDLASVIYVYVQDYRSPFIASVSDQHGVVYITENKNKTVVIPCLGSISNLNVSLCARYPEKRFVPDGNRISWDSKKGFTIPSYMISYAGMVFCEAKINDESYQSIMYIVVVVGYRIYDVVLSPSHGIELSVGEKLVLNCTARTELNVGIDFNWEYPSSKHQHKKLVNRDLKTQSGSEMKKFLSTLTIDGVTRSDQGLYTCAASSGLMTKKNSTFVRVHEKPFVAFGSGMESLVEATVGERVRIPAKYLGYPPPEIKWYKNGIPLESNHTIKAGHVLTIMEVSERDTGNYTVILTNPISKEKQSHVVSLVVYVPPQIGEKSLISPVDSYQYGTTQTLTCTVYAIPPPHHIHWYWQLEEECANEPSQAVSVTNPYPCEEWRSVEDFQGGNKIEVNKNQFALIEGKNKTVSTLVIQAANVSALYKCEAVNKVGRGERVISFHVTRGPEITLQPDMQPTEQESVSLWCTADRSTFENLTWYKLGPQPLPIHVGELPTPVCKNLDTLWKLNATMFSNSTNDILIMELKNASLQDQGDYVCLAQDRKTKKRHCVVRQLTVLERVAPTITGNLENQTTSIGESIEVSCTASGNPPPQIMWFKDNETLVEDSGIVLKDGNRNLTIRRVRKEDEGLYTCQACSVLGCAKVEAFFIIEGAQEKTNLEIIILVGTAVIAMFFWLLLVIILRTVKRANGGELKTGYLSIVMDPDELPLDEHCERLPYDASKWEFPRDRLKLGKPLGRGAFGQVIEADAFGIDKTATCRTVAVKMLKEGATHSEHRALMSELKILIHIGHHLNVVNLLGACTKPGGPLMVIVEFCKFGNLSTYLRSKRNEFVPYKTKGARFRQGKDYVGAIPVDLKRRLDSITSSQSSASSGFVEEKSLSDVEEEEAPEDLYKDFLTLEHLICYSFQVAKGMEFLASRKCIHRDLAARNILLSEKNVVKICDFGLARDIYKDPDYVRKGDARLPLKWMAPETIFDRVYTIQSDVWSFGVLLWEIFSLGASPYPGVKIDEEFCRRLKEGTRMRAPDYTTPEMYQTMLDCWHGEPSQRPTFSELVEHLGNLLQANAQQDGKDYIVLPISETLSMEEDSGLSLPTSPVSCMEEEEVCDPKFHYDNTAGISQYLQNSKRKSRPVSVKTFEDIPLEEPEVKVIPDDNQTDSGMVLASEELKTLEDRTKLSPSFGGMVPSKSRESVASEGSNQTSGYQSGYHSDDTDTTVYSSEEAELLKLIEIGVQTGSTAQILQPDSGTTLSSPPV
The test system of data set [5] is VEGF-induced angiogenesis. Particulars: rabbit corneal model; cited from earlier work.

Entries after “also recorded” stand apart in the source; their conditions may differ.

For the substance VEGF, in the data set on human Neurons [1], the “chemoattractive effect on neurons in the chamber migration assay” value (“chemoattractive effect on neurons” below) was “neuronal chemoattractants; also recorded: significant chemoattractive effect”. Moreover, the “chemotaxis of human neurons towards gradient of the factor” value with human Neurons [2] is “neuronal chemoattractants; also recorded: clear directionality of migration”.
Turning to endostatin, in data set [3] (hES-NSC70+N30, endostatin pre-incubation and daily application, day 18), the “migration of single human neurons away from the transplantation core (horizontal)” value is reported as “up to 800 μm”. Moreover, the “migration horizontally over the slice compared to control population” value in data set [3] (hES-NSC70+N30, endostatin treated, 18 days after transplantation) was “enhanced migration and integration capacity”. In data set [3] (hES-NSC70+N30, endostatin treated, day 18), the “depth reached along the z-axis” value is given as 350 μm. Besides, in data set [4] (agarose beads releasing PDGF), the “migration of immature neurons towards PDGF gradient” value was “additionally enhanced the effect”. Moreover, the “migration of immature neurons towards media” value in data set [4] (plain agarose beads, 20 hours, vs solvent control) is “significantly enhanced migration; also recorded: most prominent enhancement of migration”. Further, in the data set on primary tumor (in vivo), the “toxicity during continued treatment” value is reported as “no toxicity”. For the same substance, the “tumor regression in size” value with primary tumor (recombinant E. coli-derived endostatin added at a site remote from the primary tumor) is reported as “over 150 fold”. For the same substance, in the data set with primary tumor (recombinant E. coli-derived endostatin), the “tumor size after regression” value is given as “less than 1 mm^3”.
On to “PDGF: platelet-derived growth factor, tested as neuronal chemoattractant”, for which the “chemoattractive effect on neurons” value with human Neurons [1] is given as “neuronal chemoattractants; also recorded: significant chemoattractive effect”.
With “FGF2: fibroblast growth factor 2, an 18 kDa protein”, the “chemoattractive effect on neurons” value in the data set with human Neurons [1] was “neuronal chemoattractants; also recorded: significant chemoattractive effect”. For the same substance, the “chemotaxis of human neurons towards gradient of the factor” value in the data set with human Neurons [2] is given as “neuronal chemoattractants; also recorded: clear directionality of migration”.
Consider “SDF1: soluble factor tested as neuronal chemoattractant”, for which the “chemoattractive effect on neurons” value in the data set with human Neurons [1] is reported as “neuronal chemoattractants”.
As for ATWLPPR, in the data set with KDR, the “VEGF binding to cell-displayed KDR” value is listed as “abolish”. The VEGF-induced angiogenesis entry in data set [5] is reported as “abolished”.
